Ends that are not written are not given here.
Molecular target: TGF-β1 (Homo sapiens, UniProt P01137)
Format: cell-based
Parameters: purchased Roche; host or cells: added to Mv-1-Lu (CCL-64) mink lung epithelial cells
Description: The cell line Mv-1-Lu (CCL-64, […], Virginia, USA) derives from mink pulmonary epithelium, grows as a monolayer, and responds to the presence of TGF-β1 by decreasing its proliferation (FIG. 5). Thus, the peptide-mediated inhibition of this cytokine is able to restore cell growth and reflects the capacity of the different peptides to inhibit the biological activity of TGF-β1 in vitro. The peptides tested were obtained by peptide synthesis, in accordance to conventional procedures (Merrifield R B. J Am Chem Soc 1963; 85:2149-2154; Atherton E et al. J Chem Soc Perkin Trans 1981; 1:538-546).
The Mv-1-Lu cells are cultured to confluence in complete medium [RPMI-1640 supplemented with L-glutamine, sodium pyruvate, antibiotics and 10% fetal bovine serum (FBS)] at 37° C. and in 5% CO2 in 162 cm^2 bottles (Costar Corporation, CA, USA). Following trypsinization, the cells are cultured in 200 μl of complete medium in 96-well plates at an initial density of 5,000 cells/well at 37° C. and in 5% CO2 during 6 hours to ensure adhesion. Then, different concentrations of the peptides to be tested are added, starting from 200 μg/ml, and following 200 pg/ml of TGF-β1 (Roche) are added. After 12 hours of incubation 1 μCi of methyl-3H-thymidine (Amersham Life Science, Buckinghamshire, United Kingdom) is added per well in 25 μl of clean medium (RPMI-1640). The plate is incubated for 12 more hours under the same conditions. Finally, the cells are harvested (Filtermate 196 Harvester, Packard), transferring the tritiated thymidine, incorporated in the course of DNA synthesis, to plates (UniFilter-96 GF/C®, Perkin Elmer). Following the addition of scintillation fluid, the radioactivity was quantified using a scintillation counter (Top Count, Microplate Scintillation Counter, Packard). As positive and negative control, use was made of the incorporation of tritiated thymidine in the absence and presence of TGF-β1, respectively. The inhibition of TGF-β1 activity in this test was calculated based on the following formula: […]
The negative control represents the incorporation of tritiated thymidine in the presence of TGF-β1 but in the absence of peptide, whereas the positive control refers to the incorporation of tritiated thymidine in the absence of TGF-β1 and peptide. Thus, according to the capacity of the peptides to revert the cytokine repressor effect on Mv-1-Lu cell line proliferation, percentage of TGF-β1 biological activity inhibition by the peptides can be measured (Table 2).
Comparisons have been made of the activity of truncated peptides (derived from peptide sequence SEQ ID NO: 17) versus the complete sequence, in terms of the capacity to revert the suppressor effect of TGF-β1 upon proliferation of the Mv-1-Lu cell line. To this effect, and to determine the minimum sequence of peptide SEQ ID NO: 17 capable of inhibiting the biological activity of TGF-β1 in vitro, truncated versions of this peptide were synthesized, with truncation at the N-terminal end, C-terminal end or in both ends of the molecule. The peptides tested were obtained by peptide synthesis following conventional procedures (Merrifield R B. J Am Chem Soc 1963; 85:2149-2154; Atherton E et al. J Chem Soc Perkin Trans 1981; 1:538-546). Following the same methodology described in Example 2, the activity of truncated peptides versus the complete sequence of the peptide SEQ ID NO: 17 was quantified, in terms of a proliferation assay of the Mv-1-Lu cell line.

TGF-β1, sequence (P01137 279-390 limits assumed, species assumed): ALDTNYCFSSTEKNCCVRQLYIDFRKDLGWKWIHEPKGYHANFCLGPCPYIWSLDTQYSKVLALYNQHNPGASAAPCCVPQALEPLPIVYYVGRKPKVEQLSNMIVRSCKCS

KRIWFIPRSSWYERA [SEQ ID NO: 17, KRIWFIPRSSWYERA]
% Inhibition of in vitro TGF-β1 biological activity: 28.5%

— US8158589B2, “Peptides with the capacity to bind to transforming growth factor β1 (TGF-β1)” (Proyecto Biomedicine Cima, S.L., priority 2003, dated 2012)
